Patent US12257323B2, “Modified wound dressings” (CONVATEC TECHNOLOGIES INC., priority 2016, dated 2025)

What was measured:
[1] = Hydrogel formation in buffer viewed under light microscope; conditions: pH 4 general lab buffer or pH 9 K2HPO4/MgCl2 buffer (20 μL each)
MMP-2 = target: T1, MMP-2 (Homo sapiens, UniProt P08253); conditions: cited from earlier work
T1 sequence (P08253 110-660): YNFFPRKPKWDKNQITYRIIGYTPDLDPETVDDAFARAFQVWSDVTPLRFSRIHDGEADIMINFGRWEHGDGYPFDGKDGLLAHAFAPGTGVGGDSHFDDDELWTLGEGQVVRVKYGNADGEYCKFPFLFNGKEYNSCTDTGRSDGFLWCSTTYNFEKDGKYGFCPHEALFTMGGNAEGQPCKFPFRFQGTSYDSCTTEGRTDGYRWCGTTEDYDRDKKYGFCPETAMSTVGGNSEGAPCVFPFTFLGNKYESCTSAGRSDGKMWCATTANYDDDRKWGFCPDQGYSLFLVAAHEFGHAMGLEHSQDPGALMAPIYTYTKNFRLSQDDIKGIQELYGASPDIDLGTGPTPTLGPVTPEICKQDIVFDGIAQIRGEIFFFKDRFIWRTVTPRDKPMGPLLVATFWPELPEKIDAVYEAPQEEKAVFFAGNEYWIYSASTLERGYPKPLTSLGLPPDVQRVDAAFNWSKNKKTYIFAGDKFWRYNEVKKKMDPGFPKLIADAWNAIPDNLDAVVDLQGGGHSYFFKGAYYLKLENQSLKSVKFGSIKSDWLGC

MMP-8 = MMP-8 (Homo sapiens, UniProt P22894); conditions: cited from earlier work
Chain of MMP-8 (P22894 101-467): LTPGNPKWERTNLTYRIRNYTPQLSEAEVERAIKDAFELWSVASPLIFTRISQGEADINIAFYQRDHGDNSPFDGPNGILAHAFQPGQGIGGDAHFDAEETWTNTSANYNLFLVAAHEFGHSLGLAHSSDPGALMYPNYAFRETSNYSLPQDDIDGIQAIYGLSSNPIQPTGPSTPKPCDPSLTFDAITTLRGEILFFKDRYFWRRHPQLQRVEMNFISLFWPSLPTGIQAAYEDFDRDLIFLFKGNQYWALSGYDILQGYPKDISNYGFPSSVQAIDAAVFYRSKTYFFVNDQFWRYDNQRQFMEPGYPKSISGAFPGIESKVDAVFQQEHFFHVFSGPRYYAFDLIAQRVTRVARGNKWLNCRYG

MMP-9 = MMP-9 (Homo sapiens, UniProt P14780); conditions: cited from earlier work
Chain of MMP-9 (P14780 94-707): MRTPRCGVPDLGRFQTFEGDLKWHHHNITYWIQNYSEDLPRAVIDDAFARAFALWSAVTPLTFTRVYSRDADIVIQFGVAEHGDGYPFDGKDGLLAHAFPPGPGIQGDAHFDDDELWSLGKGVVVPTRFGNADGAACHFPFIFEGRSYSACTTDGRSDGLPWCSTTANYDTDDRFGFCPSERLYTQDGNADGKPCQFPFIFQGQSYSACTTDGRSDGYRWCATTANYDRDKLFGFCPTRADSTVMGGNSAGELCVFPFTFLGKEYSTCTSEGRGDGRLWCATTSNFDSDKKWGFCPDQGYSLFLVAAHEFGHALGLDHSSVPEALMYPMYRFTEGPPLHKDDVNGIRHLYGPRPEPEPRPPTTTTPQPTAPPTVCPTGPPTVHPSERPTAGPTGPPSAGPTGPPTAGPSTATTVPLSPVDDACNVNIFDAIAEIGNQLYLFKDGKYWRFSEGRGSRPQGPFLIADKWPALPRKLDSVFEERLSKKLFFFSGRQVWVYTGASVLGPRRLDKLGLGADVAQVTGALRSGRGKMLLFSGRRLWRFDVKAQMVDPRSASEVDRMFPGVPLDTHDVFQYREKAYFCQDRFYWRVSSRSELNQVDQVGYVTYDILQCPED

MMP-1 = target: T2, MMP-1 (Homo sapiens, UniProt P03956); conditions: cited from earlier work
T2 sequence (P03956 100-469): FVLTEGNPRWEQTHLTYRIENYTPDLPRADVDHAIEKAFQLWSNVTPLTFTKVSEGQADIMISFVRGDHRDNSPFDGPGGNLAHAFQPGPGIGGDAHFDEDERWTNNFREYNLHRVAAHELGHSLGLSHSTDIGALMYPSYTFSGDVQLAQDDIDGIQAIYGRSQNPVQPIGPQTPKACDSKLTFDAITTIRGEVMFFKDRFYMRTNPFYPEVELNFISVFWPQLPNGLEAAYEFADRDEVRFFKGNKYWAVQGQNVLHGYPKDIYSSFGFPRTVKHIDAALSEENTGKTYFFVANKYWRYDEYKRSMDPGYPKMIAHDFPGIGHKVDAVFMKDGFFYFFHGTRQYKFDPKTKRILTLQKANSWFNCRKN

MMP-3 = MMP-3 (Homo sapiens, UniProt P08254); conditions: cited from earlier work
Chain of MMP-3 (P08254 100-477): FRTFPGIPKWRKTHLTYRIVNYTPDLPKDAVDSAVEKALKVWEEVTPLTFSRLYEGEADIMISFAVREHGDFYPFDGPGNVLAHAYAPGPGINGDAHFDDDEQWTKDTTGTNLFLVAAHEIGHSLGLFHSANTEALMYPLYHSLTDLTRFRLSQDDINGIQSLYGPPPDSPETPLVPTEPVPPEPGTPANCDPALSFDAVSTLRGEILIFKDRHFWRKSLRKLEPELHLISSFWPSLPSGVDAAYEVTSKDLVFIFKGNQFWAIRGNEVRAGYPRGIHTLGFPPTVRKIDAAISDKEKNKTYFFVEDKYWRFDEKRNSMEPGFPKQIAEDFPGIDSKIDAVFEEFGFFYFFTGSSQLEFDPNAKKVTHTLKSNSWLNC

MMP-7 = target: T3, MMP-7 (Homo sapiens, UniProt P09237); conditions: cited from earlier work
T3 sequence (P09237 95-267): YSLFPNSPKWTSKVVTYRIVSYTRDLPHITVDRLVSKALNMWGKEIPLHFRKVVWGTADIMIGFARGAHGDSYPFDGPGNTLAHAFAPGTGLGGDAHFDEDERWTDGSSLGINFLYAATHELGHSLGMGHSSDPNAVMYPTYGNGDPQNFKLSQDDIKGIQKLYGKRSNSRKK

Hydrogel formation on contact with buffer [1]	Compound	Relative rate MMP-2 (MMP-2)	Relative rate MMP-8 (MMP-8)	Relative rate MMP-9 (MMP-9)	Relative rate MMP-1 (MMP-1)	Relative rate MMP-3 (MMP-3)	Relative rate MMP-7 (MMP-7)
did not form a hydrogel	CN(C)c1ccc(/N=N/c2ccc(S(=O)(=O)NCCCC[C@H](NC(=O)OCC3c4ccccc4-c4ccccc43)C(=O)O)cc2)cc1 [compound 4-c]	–	–	–	–	–	–
–	Gly-Pro-Gln-Gly#Ser-Ala-Gly-Gln	15	1.6	<5.0	5.9	45	5.5
–	Gly-Pro-Gln-Gly#Trp-Ala-Gly-Gln	<5.0	49	<5.0	<0.5	120	<5.0
–	Gly-Pro-Gln-Gly#Tyr-Ala-Gly-Gln	50	390	96	50	150	21
–	Gly-Pro-Gln-Gly#Val-Ala-Gly-Gln	30	9.0	25	9.1	53	17
–	Gly-Pro-Gln-Leu#Ile-Ala-Gly-Gln	21	54	8.8	27	170	49
–	Gly-Pro-Gln-Met#Ile-Ain-Gly-Gln	22	140	12	200	110	150
–	Gly-Pro-Gln-Phe#Ile-Ala-Gly-Gln	15	170	26	95	68	63
–	Gly-Pro-Gln-Pro#Ile-Ala-Gly-Gln	32	190	46	260	170	140
–	Gly-Pro-Gln-Tyr#Ile-Ala-Gly-Gln	58	180	30	130	68	34
–	Gly-Pro-Gln-Val#Ile-Ala-GLy-Gln	<5.0	7.9	<5.0	5.5	32	<5.0
–	Gly-Pro-Hyp-Gly#Ile-Ala-Gly-Gln	32	15	15	11	83	17
–	Gly-Pro-Leu-Gly#Ile-Ala-Gly-Gln	330	260	290	150	190	420
–	Gly-Pro-Tyr-Gly#Ile-Ala-Gly-Gln	200	110	150	200	230	240
–	Gly-Pro-Val-Gly#Ile-Ala-Gly-Gln	130	30	110	32	160	57
–	Gly-Pto-Arg-Gly#Ile-Ala-Gly-Gln	160	32	83	17	99	13
–	Gly-Pto-Met-Gly#Ile-Ala-Gly-Gln (IAGQ; printed: Ile-Ala-Gly-Gln)	120	160	180	160	120	400
